From patent US6906094B2, “1,2,4-tribsubstituted benzenes as inhibitors of 15-lipoxygenase” (Warner-Lambert Company, priority 2000, dated 2005)

Tests used:
human 15-LO = target: T1, human 15-LO (Homo sapiens, UniProt P16050); assay: Human Lysate 15-LO Assay (HUM15LO); format: biochemical; conditions: recombinant human 15-LO, 174 μM linoleic acid, 15 minutes at 4° C., 13-HODE quantitated
T1 construct: made in house; host or cells: Sf9 insect cells (baculovirus, Bac-to-Bac)
T1 sequence (P16050 1-662): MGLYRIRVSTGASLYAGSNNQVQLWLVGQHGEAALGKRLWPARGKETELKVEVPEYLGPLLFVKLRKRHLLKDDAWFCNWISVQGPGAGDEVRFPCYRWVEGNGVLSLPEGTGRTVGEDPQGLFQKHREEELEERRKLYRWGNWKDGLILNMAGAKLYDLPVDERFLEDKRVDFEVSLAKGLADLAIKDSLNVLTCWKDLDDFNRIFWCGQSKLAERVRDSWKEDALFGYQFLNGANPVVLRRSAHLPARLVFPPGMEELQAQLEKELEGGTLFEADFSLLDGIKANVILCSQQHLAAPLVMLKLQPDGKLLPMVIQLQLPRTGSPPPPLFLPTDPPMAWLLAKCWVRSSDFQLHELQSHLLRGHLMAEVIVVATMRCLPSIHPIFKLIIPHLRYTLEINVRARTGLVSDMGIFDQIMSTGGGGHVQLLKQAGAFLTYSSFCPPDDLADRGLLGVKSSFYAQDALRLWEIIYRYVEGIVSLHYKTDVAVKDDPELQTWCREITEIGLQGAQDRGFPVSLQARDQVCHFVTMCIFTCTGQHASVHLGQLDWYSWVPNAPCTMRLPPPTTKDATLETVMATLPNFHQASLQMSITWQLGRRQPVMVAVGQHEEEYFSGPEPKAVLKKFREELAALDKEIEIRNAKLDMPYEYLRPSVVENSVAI
Procedure: In the HUM15LO assay, a test compound of the present invention was incubated with 15-LO enzyme in the presence of the linoleic acid substrate. For example, a known amount of a test compound of the present invention, 100 μL of human 15-LO, and 174 μM linoleic acid in PBS containing 0.2% sodium cholate were incubated for 15 minutes at 4° C. The reaction was stopped with 100 μL of mobile phase and 10 μL of triethyl phosphite. […] 13-HODE was quantitated by comparing peak areas of individual samples with those from a standard curve generated using authentic 13-HODE. The test reaction is compared to a control reaction, which is identical to the test reaction except no test compound of the present invention is present Percent inhibition is calculated as the amount of 13-HODE produced by the test reaction divided by the amount of 13-HODE produced by the control reaction, expressed as a percent.
Human 15-LO was generated in a recombinant 15-lipoxygenase bacculovirus expression system, using Gibco/BRL/Life Technologies' Bac-to-Bac expression reagents; T4 DNA ligase, Kanamycin, Gentamicin, tetracycline, penicillin, streptomycin, Bluo-gal, IPTG, DH10Bac competent cells, SOC, LB medium, Sf-900 II SFM media, Sf9 insect cells, Cell Fectin, and EcoRI, BamHI and KpnI restriction enzymes.

[1] = target: T2, rabbit reticulocyte 15-LO (Oryctolagus cuniculus, UniProt P12530); assay: Rabbit Reticulocyte 15-LO Assay (H15LO); format: biochemical; conditions: 2 U rabbit reticulocyte 15-LO, 174 μM linoleic acid, 15 minutes at 4° C., 13-HODE quantitated
T2 construct: 15-LO is obtained from phenylhydrazine-treated rabbits and purified according to the method of Rapoport; from tissue; host or cells: reticulocytes of phenylhydrazine-treated rabbits
T2 sequence (P12530 1-663): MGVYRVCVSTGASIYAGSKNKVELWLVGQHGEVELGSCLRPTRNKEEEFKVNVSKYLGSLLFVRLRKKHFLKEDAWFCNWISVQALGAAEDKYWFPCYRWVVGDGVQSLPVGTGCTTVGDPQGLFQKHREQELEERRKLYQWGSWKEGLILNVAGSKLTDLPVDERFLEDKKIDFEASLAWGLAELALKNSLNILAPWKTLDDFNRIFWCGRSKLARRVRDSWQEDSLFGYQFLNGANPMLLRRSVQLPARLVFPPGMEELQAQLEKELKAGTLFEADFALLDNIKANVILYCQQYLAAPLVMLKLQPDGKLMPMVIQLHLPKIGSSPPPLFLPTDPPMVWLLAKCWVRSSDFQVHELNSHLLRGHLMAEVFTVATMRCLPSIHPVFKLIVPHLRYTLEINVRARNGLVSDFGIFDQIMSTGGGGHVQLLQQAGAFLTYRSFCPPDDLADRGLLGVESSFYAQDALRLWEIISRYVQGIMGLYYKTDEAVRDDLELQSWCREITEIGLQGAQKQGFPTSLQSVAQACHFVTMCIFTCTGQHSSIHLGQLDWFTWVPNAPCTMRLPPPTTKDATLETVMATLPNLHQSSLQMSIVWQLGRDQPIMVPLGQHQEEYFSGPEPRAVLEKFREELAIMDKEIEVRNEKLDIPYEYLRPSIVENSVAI
Procedure: In the H15LO assay, a test compound was incubated with 15-LO enzyme in the presence of the linoleic acid substrate. For example, 2 units (U) of rabbit reticulocyte 15-LO and 174 μM linoleic acid were incubated with a known amount of a test compound of the present invention for 15 minutes at 4° C. The total reaction volume was 100 μL in phosphate buffer saline (PBS) containing 0.2% sodium cholate. The reaction was stopped with 100 μL of mobile phase and […] of triethyl phosphite. […] 13-HODE was quantitated by comparing peak areas of individual samples with those from a standard curve generated using authentic 13-HODE.
15-LO is obtained from phenylhydrazine-treated rabbits and purified according to the method of Rapoport (Rapoport et al., European Journal of Biochemistry, 1979;96:545-561).

| Structure (SMILES) | IC50 (human 15-LO) [nM] | IC50 [1] [nM] |
| --- | --- | --- |
| COc1ccc(-c2cc3cc(F)c(F)cc3[nH]2)cc1NS(=O)(=O)NC(=O)OCC(C)C [Example 22, Carbamic Acid, [[[5-(5,6-difluoro-IH-indol-2-yl)-2-methoxyphenyl]amino]-sulfonyl]-, 2-methylpropyl ester] | 25 | 25 |
| COc1ccc(-c2cc3cc(F)c(F)cc3[nH]2)cc1NS(=O)(=O)NC(=O)OCCOC(C)C [Example 34, Carbamic Acid, [[[5-(5,6-difluoro-IH-indol-2-yl)-2-methoxyphenyl]amino]-sulfonyl]-2(1-methylethoxy)ethyl Ester] | 30 | 26 |
| CNS(=O)(=O)Nc1cc(-c2cc3cc(F)c(F)cc3[nH]2)ccc1OC [Example 37, Sulfamide, N-[5-(5,6-diflouo-IH-indo-2-yl)-2-methoxyphenyl]-N′-methyl] | 7 | 5 |
| CNS(=O)(=O)Nc1cc(C(=O)Nc2ccc(F)c(F)c2)ccc1OC [Example 38, Benzamide, N-(3,4-difluorophenyl)-4-methoxy-3-[[(methylamino)-sulfonyl]amino]] | 13 | 13 |
| COc1ccc(-c2cc3cc(F)c(F)cc3[nH]2)cc1NS(=O)(=O)NC(=O)OCCc1ccccc1 [Example 40, Carbamic Acid, [[[5-(5,6-difluoro-IH-indol-2-yl)-2-methoxyphenyl]amino]-sulfonyl]-2-phenylethyl ester] | 15 | 7 |
| COc1ccc(C(=O)Nc2ccc(F)c(F)c2)cc1NS(=O)(=O)NC(=O)OCCc1ccccc1 [Example 41] | 69 | 13 |

The remaining molecules from weak to strong by IC50 (human 15-LO), led by results:

| IC50 (human 15-LO) [nM] | IC50 [1] [nM] | Structure (SMILES) |
| --- | --- | --- |
| 133 | 80 | COc1ccc(-c2cc3cc(F)c(F)cc3[nH]2)cc1NS(=O)(=O)NC(=O)OCCCO [Example 45, Carbamic acid, [[[5-(5,6-difluoro-IH-indol-2-yl)-2-methoxyphenyl]amino]-sulfonyl]-3-hydroxypropyl ester] |
| 85 | 47 | COC(=O)NS(=O)(=O)Nc1cc(-c2cc3cc(F)c(F)cc3[nH]2)ccc1OC [Example 29, Carbamic Acid, [[[5-(5,6-difluoro-IH-indol-2-yl)-2-methoxyphenyl]amino]-sulfonyl]-methyl ester] |
| 44 | 23 | COc1ccc(-c2cc3cc(F)c(F)cc3[nH]2)cc1NS(=O)(=O)NC(=O)Nc1ccc(Cl)cc1 [Example 27, Urea, N-(4-chlor phenyl)-N′-[[[5-(5,6-difluoro-IH-indol-2-yl)-2-methoxyphenyl]amino]sulfonyl]] |
| 34 | 15 | CCOC(=O)NS(=O)(=O)Nc1cc(-c2cc3cc(F)c(F)cc3[nH]2)ccc1OC [Example 25, Carbamic Acid, [[[5-(5,6-difluoro-1H-indol-2-yl)-2-methoxyphenyl]amino]-sulfonyl]-, ethyl ester] |
| 33 | 11 | COc1ccc(-c2cc3cc(F)c(F)cc3[nH]2)cc1NS(=O)(=O)NC(=O)Nc1cc(Cl)cc(Cl)c1 [Example 24] |
| 30 | 17 | COC(=O)COC(=O)NS(=O)(=O)Nc1cc(-c2cc3cc(F)c(F)cc3[nH]2)ccc1OC [Example 43, Acetic Acid, [[[[[[5-(5,6-difluoro-1H-indol-2-yl)-2-methoxyphenyl]amino]-sulfonyl]amino]carbonyl]oxy]-, Methyl ester] |
| 18 | 39 | COc1ccc(-c2cc3cc(F)c(F)cc3[nH]2)cc1NS(=O)(=O)NC(=O)Nc1ccc(C)cc1 [Example 28, Urea, N-[[[5-(5,6-difluoro-IH-indol-2-yl)-2-methoxyphenyl]amino]sulfonyl]-N′-(4-methylphenyl)] |
| 14 | 9 | CCCCOC(=O)NS(=O)(=O)Nc1cc(-c2cc3cc(F)c(F)cc3[nH]2)ccc1OC [Example 21, Carbamic Acid, [[[5-(5,6-difluoro-IH-indol-2-yl)-2-methoxyphenyl]amino]-sulfonyl]-, Butyl Ester] |
